Reference: paper PMC11245036 (bioRxiv, 2024)

Key:
[1] = biological target: T1, GluA2(Q) (Rattus norvegicus, UniProt P19491); assay: cryo-EM structure; type: binding
[2] = biological target: GluA1 (Rattus norvegicus, UniProt P19490); assay: whole-cell patch clamp in HEK-293 cells, -60 mV; type: cell-based
[3] = biological target: GluA2(E) (Rattus norvegicus, UniProt P19491, Q607E); assay: whole-cell patch clamp in HEK-293 cells, -60 mV; type: cell-based
[4] = biological target: T1, GluA2(Q); assay: cryo-EM structure with glutamate and CTZ; type: cell-based
[5] = biological target: GluA2(Q) subunit, as part of the fusion construct GluA2-γ2EM (rat) (UniProt P19491); assay: cryo-EM structure

Chain of GluA1 (P19490 19-907): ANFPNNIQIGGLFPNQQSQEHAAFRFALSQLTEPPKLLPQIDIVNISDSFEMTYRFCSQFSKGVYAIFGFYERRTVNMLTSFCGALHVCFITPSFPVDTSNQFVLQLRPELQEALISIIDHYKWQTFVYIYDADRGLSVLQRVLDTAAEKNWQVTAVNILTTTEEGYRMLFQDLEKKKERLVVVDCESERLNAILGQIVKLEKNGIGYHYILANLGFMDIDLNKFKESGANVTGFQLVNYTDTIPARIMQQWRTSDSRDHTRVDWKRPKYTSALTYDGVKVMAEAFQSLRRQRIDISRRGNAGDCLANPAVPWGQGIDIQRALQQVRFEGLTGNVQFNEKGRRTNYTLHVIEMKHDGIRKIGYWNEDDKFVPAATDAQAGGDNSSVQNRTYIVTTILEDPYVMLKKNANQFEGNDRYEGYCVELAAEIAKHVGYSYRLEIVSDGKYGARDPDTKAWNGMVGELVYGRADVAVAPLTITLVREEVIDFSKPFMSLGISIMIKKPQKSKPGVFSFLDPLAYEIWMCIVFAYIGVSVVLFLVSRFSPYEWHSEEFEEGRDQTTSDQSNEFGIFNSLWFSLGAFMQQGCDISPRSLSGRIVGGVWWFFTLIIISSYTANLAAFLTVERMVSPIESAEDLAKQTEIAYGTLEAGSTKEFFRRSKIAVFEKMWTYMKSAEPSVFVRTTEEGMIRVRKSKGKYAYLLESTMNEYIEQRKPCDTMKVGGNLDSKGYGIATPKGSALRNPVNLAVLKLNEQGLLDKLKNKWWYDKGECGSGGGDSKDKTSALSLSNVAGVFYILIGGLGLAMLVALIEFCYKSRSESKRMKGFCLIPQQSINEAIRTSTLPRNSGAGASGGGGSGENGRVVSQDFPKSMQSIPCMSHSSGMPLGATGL

NS(=O)(=O)c1cc2c(cc1Cl)NC(C1CC3C=CC1C3)NS2(=O)=O (centres unmarked) [CTZ]
cryo-EM structure (GluA2-γ2mem), 100 μM CTZ [1]: Glutamate (yellow), CTZ (purple), and memantine (cyan) are shown as space filling models.

CC12CC3CC(C)(C1)CC(N)(C3)C2 [memantine]
IC50 [2]: 10 ± 2 µM | IC50 [3]: 25 ± 2 µM | IC50 [4]: 49 ± 2 µM

GluA2(Q) subunit, as part of the fusion construct GluA2-γ2EM (from UniProt P19491-2 22-883) (receptor)
stoichiometry N [5]: 4
